Measured values taken from patent publication US7989420B2, “Smooth muscle relaxation” (New York Medical College, priority 2006, dated 2011).

Experiments:
sGC = assay: Western blot of sGC expression in BPA; assay type: cell-based, bovine; conditions: organ culture with 100 μM ALA, Western analysis
Procedure: Rings from studies on contractile function were snap-frozen in liquid nitrogen, crushed and homogenized in lysis buffer (50 mM Tris-HCl, pH 8.0, 150 mM NaCl, 1 mM EDTA, 1% Triton X-100, 0.5% sodium deoxycholate, 0.1% sodium dodecyl sulfate, 1% of a protease inhibitor cocktail (Sigma) and 1% of a phosphatase inhibitor cocktail (Sigma). The protease inhibitor cocktail included 4-(2-aminoethyl)benzenesulfonyl floride hydrocholride, aprotinin, bestatin hydrochloride, N-(trans-epoxsuccinyl)-L-leucine-4-guanidinobutylamide, leupeptine hemisulfate, pepstatin and the phosphatase inhibitor cocktail included sodium orthovandate, sodium molybdate, sodium tartarate, and imidazole. Protein concentration was determined and 30 μg of protein samples were prepared in electrophoresis sample buffer containing 3% SDS and 3% β-mercaptoethanol and were separated using a 12% gel SDS-PAGE electrophoresis. Membranes were blocked for 1 h in TBST-5% milk and incubated overnight with phospho-VASP antibodies (diluted 1:1000). Membranes were exposed to a secondary horse radish peroxidase linked antibody and visualized with an ECL kit (Amersham). […] Membranes were subsequently washed, blocked and detected for total VASP. […] Expression of sGC was detected with β-sGC subunit antibodies (diluted 1:2000), employing anti-rabbit secondary antibodies, and a protocol where membranes were blocked for 2 h. […]

[1] = system: bovine pulmonary arteries (BPA); assay: Isometric force generation to serotonin (5-HT) in organ cultured BPA rings; assay type: cell-based; conditions: 24 h organ culture
Procedure: (§1) Organoid Culture Isolated Arteries for Heme Modulation. Intralobar BPA were isolated from slaughterhouse-derived bovine calf lungs, cleaned from surrounding tissue, and placed in 37° C. Dulbecco's Modified Eagle Medium (DMEM) containing 10% fetal bovine serum, penicillin, streptomycin, and fungizone (complete media). The arteries were isolated and cut into rings ˜2 mm in diameter and width, and the endothelium was removed by gentle rubbing of the lumen. Various compounds (i.e. ALA, FeSO4(Fe), deferoxamine) were added as described in the Results to various experimental groups, and these arteries were organ cultured overnight for 24 h in complete media in a 37° C.-5% CO2 incubator. Preliminary experiments on the time course for detection protoporphyrin IX accumulation and the effects of organ culture with doses of ALA in the 10-100 μM concentration range on contractile function, and minimizing the duration of organ culture were considerations that contributed to selecting the 24 h culture period used in this study.
(§2) Studies on the Regulation of Contractile Function. Following the overnight incubation, arterial rings were mounted on wire hooks attached to Grass (FT03) force displacement transducers for measurement of changes in isometric force. Tension was adjusted to 5 g, which is the optimal passive force for maximal contraction. Changes in force were recorded on a Grass polygraph (model 7), while vessels were incubated in 10-ml baths (Metro Scientific), which were individually thermostated (37° C.) in Krebs buffer gassed with 21% O2-5% CO2 (balance N2) in the absence of compounds used to modulate BPA protoporphyrin IX levels. Arteries were incubated for 1 h during which passive tension was adjusted to maintain 5 grams. The vessels were then depolarized with Krebs containing 123 mM KCl (High K^+) in place of NaCl, followed by re-equilibration with Krebs, prior to exposure to the experimental protocols. Following the wash with Krebs buffer after the High K^+ treatment, and a 30 min equilibration, BPA were then contracted with serotonin (5-HT) in a dose dependent manner to determine the response to this contractile agent. In some experiments, BPA were pretreated with the sGC inhibitor, 10 μM ODQ, for 15 min before contraction with serotonin. The effects of ODQ on relaxation to NO was determined by first contracting organ cultured control and ODQ-treated BPA with 1 μM 5-HT (after the initial exposure to increasing concentrations of 5-HT and a 30 min equilibration in Krebs).

bovine bronchi [2] = assay: Force generation to acetylcholine in organ cultured bovine bronchi; assay type: cell-based; conditions: organ culture with 0.1 mM ALA for 24 hrs vs absence of ALA
Procedure: as §2, with “The vessels were then depolarized with Krebs containing 123 mM KCl (High K^+) in place of NaCl, followed by re-equilibration with Krebs, prior to exposure to the experimental protocols. Following the wash with Krebs buffer after the High K^+ treatment, and a 30 min equilibration, BPA were then contracted with serotonin (5-HT) in a dose dependent manner to determine the response to this contractile agent. In some experiments, BPA were pretreated with the sGC inhibitor, 10 μM ODQ, for 15 min before contraction with serotonin.” left out
Bovine bronchi were isolated from the same lungs used for pulmonary arteries, and studied for changes in protoporphyrin IX fluorescence and force under the same conditions as bovine pulmonary arteries described above. Superoxide was detected by the chemiluminescence produced by 5 μM lucigenin, which was detected by photon counting in a scintillation counter.

[3] = system: VASP serine-239 phosphorylation (cGMP-dependent protein kinase activation); assay: Western blot of VASP serine-239 phosphorylation in BPA; assay type: cell-based, bovine; conditions: organ culture with 100 μM ALA
Procedure: Rings from studies on contractile function were snap-frozen in liquid nitrogen, crushed and homogenized in lysis buffer (50 mM Tris-HCl, pH 8.0, 150 mM NaCl, 1 mM EDTA, 1% Triton X-100, 0.5% sodium deoxycholate, 0.1% sodium dodecyl sulfate, 1% of a protease inhibitor cocktail (Sigma) and 1% of a phosphatase inhibitor cocktail (Sigma). The protease inhibitor cocktail included 4-(2-aminoethyl)benzenesulfonyl floride hydrocholride, aprotinin, bestatin hydrochloride, N-(trans-epoxsuccinyl)-L-leucine-4-guanidinobutylamide, leupeptine hemisulfate, pepstatin and the phosphatase inhibitor cocktail included sodium orthovandate, sodium molybdate, sodium tartarate, and imidazole. Protein concentration was determined and 30 μg of protein samples were prepared in electrophoresis sample buffer containing 3% SDS and 3% β-mercaptoethanol and were separated using a 12% gel SDS-PAGE electrophoresis. Membranes were blocked for 1 h in TBST-5% milk and incubated overnight with phospho-VASP antibodies (diluted 1:1000). Membranes were exposed to a secondary horse radish peroxidase linked antibody and visualized with an ECL kit (Amersham). The membranes were subsequently exposed to X-OMAT autoradiography paper (Kodak). Membranes were stripped with TRIS-HCl buffer with 100 mM β-mercaptoethanol at 50° C. for 30 min. Membranes were subsequently washed, blocked and detected for total VASP. Each measurement of phosphorylated VASP was normalized to the total level of VASP, and data are reported as the percent of the levels of phosphorylated VASP seen in control arteries not exposed to agents which modulate the activity of sGC. Expression of sGC was detected with β-sGC subunit antibodies (diluted 1:2000), employing anti-rabbit secondary antibodies, and a protocol where membranes were blocked for 2 h. After analyzing for sGC protein expression, blots were stripped and re-probed for the detection of α-actin protein levels, which were used for normalization of data for statistical analysis based on protein loading.

bovine bronchi [4] = assay: Protoporphyrin IX fluorescence in organ cultured bovine bronchi; assay type: cell-based; conditions: organ culture with 0.1 mM ALA
Description: (§3) Determination Changes in Protoporphyrin 1× and Heme Levels. Methods for the detection of protoporphyrin IX tissue fluorescence developed for the detection in cancerous cells with tissue depths of up to several millimeters (27) were adapted for detecting changes in the endogenous levels of protoporphyrin IX in BPA rings which were organ cultured with ALA. When excited with light in the regions of 505 and 540 nm, protoporphyrin IX has an emission in the region of 635 nm. […] Increases in protoporphyrin IX were measured using an excitation wavelength of 528±20 nm and emission of 620±40 nm in intact vessels. Ring segments of approximately equal size (˜4 mm in diameter and length) were centered on the bottom of the ˜6 mm diameter wells of a 96 well microplate with 200 μl of Krebs containing with 10 mM Hepes buffer (pH 7.4), and the fluorescence was measured from the bottom surface of the plate using BIOTEK fluorescent microplate reader (Model FLx800i). Data are reported in the arbitrary fluorescence units measured (AU), after subtraction of the low levels of background fluorescence observed in the absence of BPA.
Bovine bronchi were isolated from the same lungs used for pulmonary arteries, and studied for changes in protoporphyrin IX fluorescence and force under the same conditions as bovine pulmonary arteries described above. […]

[5] = system: bovine pulmonary arteries (BPA); assay: Protoporphyrin IX-associated tissue fluorescence in organ cultured BPA rings; assay type: cell-based; conditions: for BPA fluorescence: 100 μM ALA without or with 100 μM deferoxamine
Procedure: as §1, §3

endothelium-rubbed aorta = assay: Protoporphyrin IX fluorescence in aorta of rats treated with ALA in vivo; parameters: species or system rat; conditions: single dose 60 mg/kg ALA i.p., 24 hours after treatment, vs saline-injected rats
Procedure: The rats were pretreated with 60 mg/kg ALA or with a saline vehicle (i.p.). After 24 hours they were anesthetized with 50 mg/kg sodium pentobarbital and the aorta was removed for in vitro studies. Isolated aortic rings were studied for changes in protoporphyrin IX fluorescence and force under the same conditions similar to those used for bovine pulmonary arteries described above, except that 1 gram of passive force was used.

**Q.** Which “levels of sGC relative to BPA organ cultured in the absence of ALA” value (sGC) does the source give for `NCC(=O)CCC(=O)O` [ALA, δ-aminolevulinic acid] here?
**A.** The value was 71±19%.

**Q.** And the “force generation to 5-HT” value ([1]; 10 μM ALA, appeared to depress force at higher doses of 5-HT)?
**A.** The value was “did not reach statistical significance”.

**Q.** And the “decrease in force generation to 5-HT” value ([1]; 50 μM and 100 μM ALA)?
**A.** The value was 50-90%.

**Q.** What about the “force generation to 5-HT” value ([1]; 100 μM ALA, 0.1-10 μM 5-HT in the absence of ALA) of the same compound?
**A.** Its value is “markedly inhibit force generation”.

**Q.** What about the “force generation to 10 μM acetylcholine (ACh)” value (bovine bronchi [2]) of the same compound?
**A.** The value was “inhibits (relaxes) force generation”.

**Q.** And the “VASP serine-239 phosphorylation” value [3]?
**A.** Its value is “increase in VASP phosphorylation”.

**Q.** What about the “protoporphyrin IX fluorescence” value (bovine bronchi [4]) of the same compound?
**A.** Its value is “time-dependent increase in protoporphyrin IX fluorescence”.

**Q.** What about the “fluorescence potentially originating from protoporphyrin IX” value ([5]; 10 μM ALA, 24 h organ culture) of the same compound?
**A.** The value was “did not cause a detectable increase in fluorescence”.

**Q.** And the “increase in fluorescence over the background fluorescence of BPA” value ([5]; 50 μM and 100 μM ALA, 24 h organ culture)?
**A.** Its value is “up to 2 fold”.

**Q.** And the BPA fluorescence ([5]; after 8 h of organ culture)?
**A.** The BPA fluorescence was 1015±79 AU.

**Q.** And the BPA fluorescence ([5]; after 24 h of organ culture)?
**A.** Its BPA fluorescence is 1658±122 AU.

**Q.** And the “concentration of protoporphyrin IX solution producing similar fluorescence” value ([5]; increase in BPA fluorescence caused by 100 μM ALA)?
**A.** The value was roughly 3 µM.

**Q.** What about the “tissue fluorescence potentially originating from protoporphyrin IX” value ([5]; organ culture with 100 μM ALA, after 16 and 24 h of incubation) of the same compound?
**A.** Its value is “increase in tissue fluorescence”.

**Q.** And the “protoporphyrin IX fluorescence in endothelium-rubbed aorta” value (endothelium-rubbed aorta)?
**A.** Its value is “increased in protoporphyrin IX fluorescence”.
